Experimental data: patent publication US6492427B2, “Methods for treating multiple sclerosis” (priority 1998, dated 2002)
Like-named read-outs stand apart in the source and are kept apart here.

How the values were obtained:
OLs = experiment: Methylene blue counts of individual cell types: OLs; type: cell-based, rat; details: BM-D9, 24 h
Procedure: (§1) Methylene blue (3,7-bis (dimethylamino)-phenothiazin-5-ium chloride), a ribonucleic acid (RNA) binding agent commonly used as an alternative nucleic acid stain, can also be used as a biological staining agent to stain cells in order to observe their morphological features. At 24 h, cells were fixed in 2% paraformaldehyde for 15 min at room temperature. Briefly, cells were washed twice with PBS and 100 μl of 1% methylene blue (Mallinckrodt Chemical Co., MO, USA) solution containing 1% AgNO3 was added for 10 min to the wells containing coverslips. Subsequently, the coverslips were washed with two changes of distilled water and absolute ethanol, cleared with xylene and mounted on slides with permount.
(§2) Cell counts were performed for 25 randomly chosen 100 power fields on each coverslip. Two randomly generated coordinates drawn from a uniform distribution of random numbers specified the center of each field. The random numbers were generated on a computer by using Microcal Origin 4.0 program. […] Three coverslips was counted for each treatment condition. In subsequent experiments, different cell types (for example, O-2A progenitors, PROLs, OLs and astrocytes) were morphologically identified on each field and were counted separately for experimental series-I and II. […]

[1] = test system: CA1, CA3 and CA4 hippocampal neurons; details: 0.25 mg/kg daily, multiple time points up to 14 days (Paterson et al., 1997); cited from earlier work
oligodendroglial cells [2] = experiment: DNA extraction and electrophoresis (DNA ladders); type: cell-based, rat; details: BM + 10^−9 M, 18 h after washing on 16 DIV
oligodendroglial cells [3] = experiment: In situ DNA end labeling (ApopTag), counts of apoptotic nuclei; type: cell-based, rat; details: 6, 12, 15, 18, 24 h, both experimental series
Procedure: The ApopTag™ method utilizes an ApopTag™ in situ apoptosis detection kit (Oncor, Md., USA), which detects nuclei with, cut 3′-OH ends of DNA. Oligodendrocytes at 16 DIV were treated with BM, BM-D9, IM and IM-D9 for 6, 12, 15, 18 and 24 h. Cells were fixed in 2% paraformaldehyde, followed by three washes in 0.1M PBS and permeabilization with 0.05% Tween-20 in PBS for 10 min at room temperature. Endogenous peroxidase was quenched with 1% H2O2 in PBS for 5 min at room temperature. Coverslips were then covered with 1 X equilibration buffer for 30 min at room temperature and then incubated with terminal deoxynucleotidyl transferase (TdT)/reaction buffer (76 μl of reaction buffer+32 μl of TdT enzyme) for 1 h at 37° C. A stop wash buffer incubation for 30 min at 37° C. was used to terminate the 3′-OH DNA extension reaction. After a PBS wash, the coverslips were incubated with antidigoxigenin peroxidase antibody. After three washes with 0.1M PBS, chromogenic detection was carried out using DAB (1.5 mg/ml) mixed with hydrogen peroxide (H2O2; 0.02% v/v) yielding a brown reaction product. Coverslips were dehydrated in ascending grade alcohol series, cleared with xylene and mounted on slides using a drop of permount. ApopTag™ positive nuclei were randomly counted in triplicate (described in section 2.5), for each of the time points, for experimental series-I and II.

ASTs = experiment: Methylene blue counts of individual cell types: ASTs; type: cell-based, rat; details: BM-D9, 24 h
Procedure: as §1, §2

[4] = pH about 3-5 vs pH about 7; cited from earlier work
O-2As = experiment: Methylene blue counts of individual cell types: O-2As; type: cell-based, rat; details: BM-D9, 24 h
Procedure: as §1, §2

oligodendroglial cells [5] = experiment: Total counts of intact methylene blue stained cells; type: cell-based, rat; details: BM-D9 (10^−9 M), 24 h
Procedure: Cells were trophically withdrawn by replacing the media with a serum free, chemically-defined base media (BM) lacking insulin and IGF-I (Bottenstein et al., 1988). The base media consisited of DMEM supplemented with penicillin (50 IU/ml); streptomycin (50 μg/ml); 1 mM sodium pyruvate; 50 μg/ml transferrin; 0.005 μg/ml sodium selenite; 16 μg/ml putrescine; 0.006 μg/ml progesterone and 0.1 mg/ml bovine serum albumin. All the cells were washed with BM twice before exposing them to individual treatment conditions. Control cells were washed and placed in BM supplemented with 2.5 ng/ml IGF-I and 5 μg/ml insulin to form the insulin media (IM).
To study the effects of trophic-like agents on the survival of oligodendroglial […].
Methylene blue (3,7-bis (dimethylamino)-phenothiazin-5-ium chloride), a ribonucleic acid (RNA) binding agent commonly used as an alternative nucleic acid stain, can also be used as a biological staining agent to stain cells in order to observe their morphological features. […]
Cell counts were performed for 25 randomly chosen 100 power fields on each coverslip. […] Three coverslips was counted for each treatment condition. In subsequent experiments, different cell types (for example, O-2A progenitors, PROLs, OLs and astrocytes) were morphologically identified on each field and were counted separately for experimental series-I and II. […]

PROLs = experiment: Methylene blue counts of individual cell types: PROLs; type: cell-based, rat; details: BM-D9, 24 h
Procedure: as §1, §2

CA1 hippocampal neurons = details: cited from earlier work
[6] = test system: MBP, PLP, GC and CNPase-I; experiment: Western blot of PROL and OL marker proteins; type: cell-based, rat; details: BM + 10^−9 M, 18 h

**Q.** What does the source list for C#CCN(C)[C@H](C)Cc1ccccc1 [(−)-deprenyl, R-(−)-N,α-Dimethyl-N-2-propynyl phenethylamine]?
**A.** OL cell numbers compared to those in BM (OLs; experimental series II): 291%; OL cell numbers compared to those in BM (OLs; experimental series-I): 565.0%; CA1, CA3 and CA4 hippocampal neuronal survival [1]: markedly significant increases in neuronal survival; DNA laddering on electrophoresis gels (oligodendroglial cells [2]): did not show detectable laddering; number of ApopTag positive nuclei (oligodendroglial cells [3]; 10^−9 M added to IM): did not significantly change the number of ApopTag™ positive nuclei; number of ApopTag positive nuclei (oligodendroglial cells [3]; 10^−9 M added to base media (BM)): significantly decreased the numbers of ApopTag™ nuclei in both experimental series; number of ApopTag positive nuclei (oligodendroglial cells [3]; 10^−9 M added to base media (BM), listed as (−)-Deprenyl): reduced the incidence of apoptotic nuclei at all the time points; AST cell numbers compared to those in BM (ASTs; experimental series II): 132%; AST cell numbers compared to those in BM (ASTs; experimental series-I): 570%; stability depending on pH of the medium [4]: more stable at a pH in the range of about 3-5 than at a pH of about 7; O-2A cell numbers compared to those in BM (O-2As; experimental series II): 176%; O-2A cell numbers compared to those in BM (O-2As; experimental series-I): 244%; number of intact methylene blue stained cells, % of those in BM (oligodendroglial cells [5]; experimental series-I): 576%; number of intact methylene blue stained cells, % of those in BM (oligodendroglial cells [5]; experimental series-II): 255%; PROL cell numbers compared to those in BM (PROLs; experimental series II): 275%; PROL cell numbers compared to those in BM (PROLs; experimental series-I): 739.2%; CA1 hippocampal neuronal survival (CA1 hippocampal neurons; 0.25 mg/kg, days 3 or 7 (Lahtinen et al., 1997)): significant increase in survival at both time points; CA1 hippocampal neuronal survival (CA1 hippocampal neurons; 10 mg/kg daily from 1-2 hours after 5 minutes occlusion, day 4 (Ballabriga et al., 1997)): no increase in survival; band densities for MBP, CNP-ase I and PLP compared to IM [6]: exceed those for IM; immunodensity of marker proteins (MBP, PLP, GC, CNPase-I) compared to BM [6]: marked increase in immunodensity compared to BM
